Entries after “also recorded” stand apart in the source; their conditions may differ.
What was measured:
[1] = test system: DOHH2; assay: MTS cell proliferation assay, olaparib IC50; assay type: cell-based; details: Homo sapiens, DOHH-2; DOHH2, DLBCL LMO2+
Protocol: (§1) Proliferation and cell cycle studies: Cell proliferation was studied using cell titer 96 Aqueous Non-radioactive cell proliferation (MTS) kit from Promega. This assay was performed following manufacturer's instructions. For cell cycle studies, cells were fixed with 70% cold ethanol and incubated overnight at 4° C. Next, cells were washed once with 1×PBS and incubated with 50 μg/ml Propidium Iodide (Invitrogen) and RNAse (0.1 mg/ml) for 30 min. Cells were analyzed using a flow cytometer (BD FACS Canto-II analyzer).

[2] = test system: OCI-19; assay: MTS cell proliferation assay, olaparib IC50; assay type: cell-based; details: Homo sapiens; OCI-19, DLBCL LMO2+
Protocol: as §1

[3] = test system: OCI-Ly8; assay: MTS cell proliferation assay, olaparib IC50; assay type: cell-based; details: Homo sapiens; OCI-Ly8, DLBCL LMO2+
Protocol: as §1

[4] = test system: DLBCL LMO2+ cell lines (OCI-Ly8, OCI-Ly19 and DOHH2); assay: MTS cell proliferation assay; assay type: cell-based, human; details: OCI-Ly8, OCI-Ly19, DOHH2 compared with IMR90, HCC1187, OCI-Ly1, U2932; p<0.001 by ANOVA
Protocol: as §1

[5] = test system: DLBCL LMO2- and control cell lines (OCI-Ly1, U2932, IMR90, HCC1187); assay: MTS cell proliferation assay; assay type: cell-based, human
Protocol: as §1

[6] = test system: DLBCL LMO2+ cell lines; assay: Colony-forming assay; assay type: cell-based, human; details: olaparib pretreatment 48 h, colonies after 14 days
Protocol: Colony-forming assay: Clonogenic assays were performed as described elsewhere (McDonnell, Oncogene, 31(32), 3733-3740 (2012)). In total, 500 cells were pretreated with indicated olaparib concentration (0; 1; 10; 100; 1,000; and 10,000 nM) for 48 h and seeded in triplicate in MethoCult conditioned media (Stem Cell Technologies, Vancouver, Canada). After 14 days, macroscopic colonies were stained with iodonitrotetrazolium chloride (Sigma Aldrich) overnight and counted. Only colonies with 50 or more cells were counted.

[7] = test system: DLBCL LMO2+ cell lines; assay: Cell death analysis by Annexin V / propidium iodide flow cytometry; assay type: cell-based, human; details: 4 days, 1 μM olaparib
Description: FIG. 4A, MTS assay to evaluate effect of olaparib on the proliferation of human lymphoblasts (HCC1187), human primary lung fibroblasts (IMR90) and human lymphomas cells (LMO2 negative (U2932, OCI-Ly1) and LMO2 positive (DOHH2, OCI-Ly8, OCI-Ly19)). *P<0.0001. Two-way ANOVA. FIG. 4B, quantification of colony formation assays in OCI-Ly1, DOHH2, VaL and Val (LMO2 KO)-LMO2-null Val cells exposed to different concentrations of olaparib. Only colonies with 50 or more cells where counted. *P<0.001, Two-way ANOVA. FIG. 4C, quantification of the flow cytometer results for Propidium Iodide (PI) and Annexin V staining after 4 days in presence or absence of 1 μM olaparib for cell death analysis in the indicated lymphoma cell lines. FIG. 4D, representative pictures of colony formation assay quantified in FIG. 4B using DOHH2 cells. […] CI, Combination Index (CI<1 indicates a synergistic effect). FIG. 4F, quantification of γH2AX DNA damage foci in OCI-Ly8 cells exposed to or not exposed to olaparib during 24 hs.

[8] = test system: OCI-Ly8 cells; assay: gammaH2AX DNA damage foci (immunofluorescence); assay type: cell-based, human; details: OCI-Ly8, 24 hs exposure
Protocol: Immunofluorescence studies: For studying DNA break repair, DNA double-strand breaks were induced either by exposing the cells to ionization radiation (IR). DLBCL cell lines were exposed to gamma ray source at 10 Gy (cobalt 60 irradiator) and U2OS cells were exposed to 4 Gy. Alternatively double-stranded breaks were induced by adding Doxorubicin (12.5 ng/ml) to the culture during 16-20 hs. Cells were attached on a glass slide pre-coated with poly-lysine for 30 min. Cells were fixed with 4% Para-formaldehyde in 1×PBS for 15 min at room temperature. After fixing, cells were permeabilized using blocking solution (1 mg/ml BSA, 5% Goat/Horse normal serum, 0.5% TritonX-100) for 30 min. Cells were incubated with primary antibodies diluted in blocking solution for 1 h. Cells were washed three times with 1×PBS 5 min each. After washing, cells were incubated with secondary antibodies diluted in blocking solution, Alexa Fluor 488 or Alexa Fluor 594 for 30 min. Cells were then washed with 1×PBS twice for 5 min each wash. Nuclear DNA was visualized via DAPI (1 μg/ml) (Sigma Aldrich) staining for 15 min. Finally, cells were washed with 1×PBS for 15 min to remove excess stain and mounted with Prolong Gold antifade reagent (Invitrogen). Images were acquired using a Leica DMI6000 B Fluorescence microscope.

[9] = test system: DLBCL LMO2+ cell lines (OCI-Ly8, OCI-Ly19, DOHH2); assay: Colony formation assay, olaparib in combination with genotoxic agents (Combination Index); assay type: cell-based, human
Description: Only colonies with 50 or more cells where counted. *P<0.001, Two-way ANOVA. […] CI, Combination Index (CI<1 indicates a synergistic effect).

[10] = test system: OCI-Ly1 xenografts (LMO2 negative); assay: DLBCL subcutaneous xenograft model; assay type: in vivo, NOD/SCID mice; details: olaparib 50 mg/kg
Description: (§2) Subcutaneous xenograft tumors were generated by human DLBCL cells (OCI-Ly19 or OCI-Ly1) injected into NOD/SCID (5 million cells/mouse). Treatment started when tumor reached 100 mm^3 (˜10 days post-injection). FIG. 5A, Kaplan-Meier plots: OCI-Ly19 (n=per group: n=8 CTL, n=9 olaparib, n=5 RCHOP, n=5 RCHOP+olaparib) and OCI-Ly1 (n=5 per group). Mice were euthanized when the tumor volume reached 1500 mm^3 in accordance with the institutional guidelines. Statistical analysis was done by the log rank (Mantel-Cox) test. FIG. 5B, Ex vivo analyses of the tumors. The xenografts were generated as described above. Shown are representative FACS analyses of the OCI-Ly19 tumor cells exposed or not to olaparib during 3 days and stained with Annexin V and propidium iodide (PI). FIG. 5C, Tunnel assays in OCI-Ly19 tumor samples exposed or not to olaparib.
(§3) All mice studies were conducted after approval of IACUC protocol. For DLBCL xenograft model, five-week-old female NOD/SCID mice (Harlan's) were subcutaneously injected with DLBCL cell line OCI-LY19 (5×10^6 cells/mouse) into the right flank. Once tumors reached 100 mm^3, mice were subdivided into two experimental groups (n=5-7/group). One group received buffer solution (1×PBS) and the other group received Olaparib (50 mg/kg; LC Labs, MA) for 21 consecutive days via IP injection. In separate experiments, one group received buffer solution (1×PBS), second group received Olaparib (50 mg/kg; LC Labs, MA), third group RCHOP (Rituximab 20 mg/kg, i.v. for a single dose on D1; cyclophosphamide, 40 mg/kg, D1; doxorubicin, 3.3 mg/kg, i.v. D1; vincristine, 0.5 mg/kg, i.v. D1; and prednisone, 0.2 mg/kg, every day by oral gavage on D1-5 and fourth group combination of Olaparib with RCHOP. Tumor bearing mice were observed every two days for tumor volume and weight loss was measured using standard calipers. Once the tumor volume exceeded 1500 mm^3 or the mouse […] dropped more than 10% total body weight, the mice were sacrificed.

[11] = test system: OCI-Ly19 xenografts (LMO2 positive); assay: DLBCL subcutaneous xenograft model; assay type: in vivo, NOD/SCID mice; details: for lifespan (survival): olaparib 50 mg/kg IP, 21 days, vs control group
Description: as §2, §3

[12] = test system: primary human DLBCL tumors expressing or not LMO2; assay: MTS assay in primary human tumor samples; assay type: cell-based; details: LMO2- and reactive follicular hyperplasia
Description: FIGS. 6A-6C: Olaparib and doxorubicin show synergy to kill primary DLBCL cells expressing LMO2. FIG. 6A, MTS assay to evaluate the effect of exposure to different concentrations of olaparib alone or in combination with doxorubicin in primary human DLBCL tumors expressing or not LMO2 and a Reactive follicular hyperplasia (LMO2−). CI, Combination Index (CI<1 indicates a synergistic effect). FIG. 6B, Western blots showing LMO2 level in human DLBCL cell lines (OCI-Ly1 (LMO2 negative), OCI-Ly19 (LMO2 positive), human primary lymphoblasts (HCC1187)), and primary human tumors (LMO2+, DLBCL expressing LMO2, LMO2−, DLBCL not expressing LMO2) and RFH-Reactive follicular hyperplasia not expressing LMO2. GAPDH was used as loading control. FIG. 6C, immunohistochemistry (IHC) for LMO2 in primary human DLBCL samples used for FIGS. 6A and 6B. H&E, hematoxylin and eosin staining.
Primary tumors were obtained from DLBCL or no DLBCL patients following appropriate consent of the IRB approved protocol and single cell suspension generated using standard techniques.
as §1

[13] = test system: MOLT16 (LMO2-positive) versus Jurkat (LMO2-negative); assay: MTS cell proliferation assay in T-ALL cell lines; assay type: cell-based, human; details: LMO2 expressing versus LMO2 negative T-ALL cell line, 4 days, p<0.001 by ANOVA
Description: (§4) FIG. 7A, quantification of cell proliferation via MTS assay in MOLT16 (LMO2+) and Jurkat (LMO2−) T cell lymphoblastic leukemia cell lines exposed to different concentrations of olaparib during 4 days. *P<0.001, Two-way ANOVA. FIG. 7B, quantification of the flow cytometer results for Annexin V staining after 4 days in presence or absence of indicated concentrations of olaparib for cell death analysis in the indicated T cell lymphoblastic leukemia cell lines.
as §1

[14] = test system: MOLT16 (LMO2-positive) versus Jurkat (LMO2-negative); assay: Annexin V cell death analysis in T-ALL cell lines; assay type: cell-based, human; details: LMO2 expressing versus LMO2 negative T-ALL cell line, 4 days
Description: as §4

[15] = breast cancer treated patients; cited from earlier work

## O=C(c1cc(Cc2n[nH]c(=O)c3ccccc23)ccc1F)N1CCN(C(=O)C2CC2)CC1 [olaparib]
[1]
  IC50: 120 nM
[2]
  IC50: 130 nM
[3]
  IC50: 800 nM
[4]
  cell proliferation: decreases proliferation; also recorded: statistically significant (p<0.001 by ANOVA) decrease in cell proliferation
[5]
  effect on DLBCL LMO2- and control cell lines: no or minimal effect
[6]
  colony formation: pronounced olaparib-mediated decrease in colony formation
[7]
  cell death via apoptosis: induces cell apoptosis; also recorded: increased cell death via apoptosis
[8]
  DNA damage (γH2AX foci): increased DNA damage
[9]; olaparib + doxorubicin, three DLBCL LMO2+ cell lines, preliminary studies
  synergy with doxorubicin: synergistic
[10]
  lifespan (survival): did not produce any effect
[11]; OCI-Ly19 tumors, ex vivo analysis
  cell death in tumors (Annexin V, PI, Tunnel assay): increase in cell death
[11]; OCI-Ly19 xenografts
  lifespan (survival): increased the lifespan
[11]; OCI-Ly19 xenografts, listed as Olaparib
  lifespan (survival): prolongs survival
[11]; OCI-Ly19 xenografts, olaparib + RCHOP vs RCHOP
  lifespan in combination with RCHOP: increased the life-span
[11]; human DLBCL cells expressing LMO2, murine xenograft
  tumor growth in vivo: slows growth
[12]
  proliferation capacity of primary tumor samples, olaparib alone: only affected the proliferation capacity of the DLBCL sample expressing LMO2 protein
  proliferation capacity of primary tumor samples, olaparib in combination with doxorubicin: only affected the proliferation capacity of the DLBCL sample expressing LMO2 protein
[12]; listed as Olaparib
  proliferation capacity of primary tumor samples, olaparib in combination with doxorubicin: show synergy
[13]
  cell proliferation: decreases proliferation
[13]; listed as Olaparib
  cell proliferation: statistically significant (p<0.001 by ANOVA) decrease in cell proliferation
[14]
  cell death: induces cell apoptosis
[14]; listed as Olaparib
  cell death: increase in cell death
[15]
  concentration observed in the blood: 2000 nM

## N.N.O=C([O-])C1(C(=O)[O-])CCC1.[Pt+2] [carboplatin]
[9]; olaparib + carboplatin, OCI-Ly19 and DOHH2
  synergy with olaparib (carboplatin): showed synergy

From US11311537B2, “Diagnosis and treatment of lymphoproliferative disorders with PARP inhibitors” (UNIVERSITY OF MIAMI, priority 2016, dated 2022)
